The source of these data is Sander's compilation of Henry's law constants (doi:10.1021/es00156a005).

This data set can be described thus: Henry solubility constant Hcp at 293 K (mol/(m3 Pa)). To be noted: reference: Murphy et al. (1987).

For `Clc1ccc(-c2cc(Cl)c(Cl)cc2Cl)cc1Cl` [2,3',4,4',5-pentachlorobiphenyl], the “Henry solubility constant Hcp at 293 K” value worked out at 0.12.

As for `Clc1ccc(-c2ccccc2)c(Cl)c1` [2,4-dichlorobiphenyl], the “Henry solubility constant Hcp at 293 K” value is 0.027.

As to `Clc1cc(Cl)c(Cl)c(-c2cc(Cl)c(Cl)cc2Cl)c1` [2,2',3,4',5,5'-hexachlorobiphenyl], the “Henry solubility constant Hcp at 293 K” value came out at 0.11.

Turning to `Clc1ccc(Cl)c(-c2cc(Cl)ccc2Cl)c1` [2,2',5,5'-tetrachlorobiphenyl], the “Henry solubility constant Hcp at 293 K” value stood at 0.041.

In the case of `Clc1cccc(-c2ccc(Cl)cc2Cl)c1` [2,3',4-trichlorobiphenyl], the “Henry solubility constant Hcp at 293 K” value is 0.024.

As to `Clc1cc(Cl)c(-c2c(Cl)c(Cl)cc(Cl)c2Cl)cc1Cl` [2,2',3,4',5,5',6-heptachlorobiphenyl], the “Henry solubility constant Hcp at 293 K” value is 0.12.

In the case of `Clc1cc(Cl)c(-c2c(Cl)cc(Cl)c(Cl)c2Cl)cc1Cl` [2,2',3,4,4',5',6-heptachlorobiphenyl], the “Henry solubility constant Hcp at 293 K” value was found to be 0.15.

In the case of `Clc1ccc(-c2cc(Cl)ccc2Cl)c(Cl)c1` [2,2',4,5'-tetrachlorobiphenyl], the “Henry solubility constant Hcp at 293 K” value amounted to 0.036.

`Clc1ccc(-c2c(Cl)cc(Cl)c(Cl)c2Cl)cc1Cl` [2,3,3',4,4',6-hexachlorobiphenyl]: the “Henry solubility constant Hcp at 293 K” value amounted to 0.23.

Consider `Clc1ccc(Cl)c(-c2ccccc2Cl)c1` [2,2',5-trichlorobiphenyl], for which the “Henry solubility constant Hcp at 293 K” value is 0.033.

Take `Clc1ccc(Cl)c(-c2c(Cl)ccc(Cl)c2Cl)c1Cl` [2,2',3,3',6,6'-hexachlorobiphenyl]: the “Henry solubility constant Hcp at 293 K” value is 0.044.

As to `Clc1cc(Cl)c(Cl)c(-c2ccc(Cl)c(Cl)c2Cl)c1` [2,2',3,3',4,5'-hexachlorobiphenyl], the “Henry solubility constant Hcp at 293 K” value is 0.092.

On to `Clc1cc(Cl)c(-c2ccccc2Cl)cc1Cl` [2,2',4,5-tetrachlorobiphenyl], for which the “Henry solubility constant Hcp at 293 K” value is 0.039.

For the compound `Clc1cc(Cl)c(Cl)c(-c2cccc(Cl)c2Cl)c1` [2,2',3,3',5-pentachlorobiphenyl], the “Henry solubility constant Hcp at 293 K” value amounted to 0.06.

Consider `Clc1ccc(-c2ccccc2Cl)c(Cl)c1` [2,2',4-trichlorobiphenyl], for which the “Henry solubility constant Hcp at 293 K” value turned out to be 0.03.

As for `Clc1cccc(-c2ccc(Cl)c(Cl)c2Cl)c1Cl` [2,2',3,3',4-pentachlorobiphenyl], the “Henry solubility constant Hcp at 293 K” value was 0.084.

Regarding `Clc1ccc(-c2ccccc2Cl)cc1Cl` [2,3',4'-trichlorobiphenyl], the “Henry solubility constant Hcp at 293 K” value was determined as 0.044.

For the compound `Clc1ccc(-c2ccc(Cl)c(Cl)c2Cl)cc1` [2,3,4,4'-tetrachlorobiphenyl], the “Henry solubility constant Hcp at 293 K” value amounted to 0.061.

With `Clc1cc(-c2cccc(Cl)c2Cl)cc(Cl)c1Cl` [2,3,3',4',5'-pentachlorobiphenyl], the “Henry solubility constant Hcp at 293 K” value came to 0.16.

As to `Clc1ccc(-c2c(Cl)ccc(Cl)c2Cl)cc1Cl` [2,3,3',4',6-pentachlorobiphenyl], the “Henry solubility constant Hcp at 293 K” value amounted to 0.093.

Turning to `Clc1ccc(-c2c(Cl)c(Cl)cc(Cl)c2Cl)c(Cl)c1Cl` [2,2',3,3',4,5',6'-heptachlorobiphenyl], the “Henry solubility constant Hcp at 293 K” value amounted to 0.3.

Consider `Clc1ccc(-c2c(Cl)ccc(Cl)c2Cl)cc1` [2,3,4',6-tetrachlorobiphenyl], for which the “Henry solubility constant Hcp at 293 K” value turned out to be 0.058.

In the case of `Clc1ccccc1-c1ccccc1Cl` [2,2'-dichlorobiphenyl], the “Henry solubility constant Hcp at 293 K” value came out at 0.033.

With `Clc1ccc(-c2ccc(Cl)c(Cl)c2)cc1` [3,4,4'-trichlorobiphenyl], the “Henry solubility constant Hcp at 293 K” value stood at 0.065.

Take `Clc1cccc(-c2cc(Cl)ccc2Cl)c1` [2,3',5-trichlorobiphenyl]: the “Henry solubility constant Hcp at 293 K” value came to 0.029.

In the case of `Clc1ccc(-c2ccc(Cl)c(Cl)c2Cl)c(Cl)c1` [2,2',3,4,4'-pentachlorobiphenyl], the “Henry solubility constant Hcp at 293 K” value was found to be 0.06.

Regarding `Clc1ccc(Cl)c(-c2c(Cl)cc(Cl)c(Cl)c2Cl)c1` [2,2',3,4,5',6-hexachlorobiphenyl], the “Henry solubility constant Hcp at 293 K” value was found to be 0.07.

Consider `Clc1ccc(Cl)c(-c2cc(Cl)c(Cl)c(Cl)c2Cl)c1` [2,2',3,4,5,5'-hexachlorobiphenyl], for which the “Henry solubility constant Hcp at 293 K” value was 0.1.

On to `Clc1cc(Cl)c(Cl)c(-c2ccc(Cl)c(Cl)c2)c1` [2,3,3',4',5-pentachlorobiphenyl], for which the “Henry solubility constant Hcp at 293 K” value is 0.17.

`Clc1ccccc1-c1cc(Cl)c(Cl)c(Cl)c1` [2,3',4',5'-tetrachlorobiphenyl]: the “Henry solubility constant Hcp at 293 K” value is 0.077.

`Clc1ccccc1-c1ccc(Cl)c(Cl)c1Cl` [2,2',3,4-tetrachlorobiphenyl]: the “Henry solubility constant Hcp at 293 K” value is 0.049.

`Clc1ccc(-c2cccc(Cl)c2Cl)cc1Cl` [2,3,3',4'-tetrachlorobiphenyl]: the “Henry solubility constant Hcp at 293 K” value turned out to be 0.061.

For `Clc1cc(Cl)c(-c2c(Cl)ccc(Cl)c2Cl)c(Cl)c1Cl` [2,2',3,3',4,6,6'-heptachlorobiphenyl], the “Henry solubility constant Hcp at 293 K” value was found to be 0.11.

As to `Clc1ccc(-c2ccc(Cl)c(Cl)c2)c(Cl)c1` [2,3',4,4'-tetrachlorobiphenyl], the “Henry solubility constant Hcp at 293 K” value is 0.049.

Consider `Clc1cc(Cl)c(Cl)c(-c2c(Cl)ccc(Cl)c2Cl)c1` [2,2',3,3',5,6'-hexachlorobiphenyl], for which the “Henry solubility constant Hcp at 293 K” value worked out at 0.07.

For `Clc1ccc(-c2cc(Cl)c(Cl)cc2Cl)c(Cl)c1` [2,2',4,4',5-pentachlorobiphenyl], the “Henry solubility constant Hcp at 293 K” value turned out to be 0.046.

In the case of `Clc1ccccc1-c1c(Cl)cccc1Cl` [2,2',6-trichlorobiphenyl], the “Henry solubility constant Hcp at 293 K” value is 0.033.

With `Clc1cccc(-c2c(Cl)ccc(Cl)c2Cl)c1Cl` [2,2',3,3',6-pentachlorobiphenyl], the “Henry solubility constant Hcp at 293 K” value is 0.057.

On to `Clc1ccc(-c2cc(Cl)ccc2Cl)cc1` [2,4',5-trichlorobiphenyl], for which the “Henry solubility constant Hcp at 293 K” value was determined as 0.037.

On to `Clc1cccc(-c2c(Cl)cccc2Cl)c1` [2,3',6-trichlorobiphenyl], for which the “Henry solubility constant Hcp at 293 K” value stood at 0.035.

In the case of `Clc1ccc(-c2cccc(Cl)c2Cl)c(Cl)c1` [2,2',3,4'-tetrachlorobiphenyl], the “Henry solubility constant Hcp at 293 K” value came out at 0.05.

As to `Clc1ccc(Cl)c(-c2ccccc2)c1Cl` [2,3,6-trichlorobiphenyl], the “Henry solubility constant Hcp at 293 K” value stood at 0.031.

As for `Clc1cc(Cl)c(-c2c(Cl)ccc(Cl)c2Cl)cc1Cl` [2,2',3,4',5',6-hexachlorobiphenyl], the “Henry solubility constant Hcp at 293 K” value was 0.067.

Consider `Clc1ccc(-c2cc(Cl)c(Cl)c(Cl)c2Cl)c(Cl)c1` [2,2',3,4,4',5-hexachlorobiphenyl], for which the “Henry solubility constant Hcp at 293 K” value is 0.15.

Take `Clc1cccc(-c2c(Cl)cc(Cl)c(Cl)c2Cl)c1Cl` [2,2',3,3',4,6-hexachlorobiphenyl]: the “Henry solubility constant Hcp at 293 K” value turned out to be 0.15.

For the compound `Clc1cc(Cl)c(-c2ccc(Cl)c(Cl)c2Cl)cc1Cl` [2,2',3,4,4',5'-hexachlorobiphenyl], the “Henry solubility constant Hcp at 293 K” value was determined as 0.13.

In the case of `Clc1ccc(Cl)c(-c2c(Cl)ccc(Cl)c2Cl)c1` [2,2',3,5',6-pentachlorobiphenyl], the “Henry solubility constant Hcp at 293 K” value is 0.05.

In the case of `Clc1ccc(-c2cc(Cl)cc(Cl)c2Cl)cc1` [2,3,4',5-tetrachlorobiphenyl], the “Henry solubility constant Hcp at 293 K” value was 0.034.

Consider `Clc1ccc(Cl)c(-c2cc(Cl)c(Cl)cc2Cl)c1` [2,2',4,5,5'-pentachlorobiphenyl], for which the “Henry solubility constant Hcp at 293 K” value stood at 0.055.

For `Clc1cccc(-c2c(Cl)cccc2Cl)c1Cl` [2,2',3,6'-tetrachlorobiphenyl], the “Henry solubility constant Hcp at 293 K” value turned out to be 0.038.

For the compound `Clc1ccc(Cl)c(-c2cc(Cl)c(Cl)c(Cl)c2)c1` [2,3',4',5,5'-pentachlorobiphenyl], the “Henry solubility constant Hcp at 293 K” value is 0.19.

In the case of `Clc1ccc(Cl)c(-c2ccc(Cl)c(Cl)c2)c1` [2,3',4',5-tetrachlorobiphenyl], the “Henry solubility constant Hcp at 293 K” value amounted to 0.052.

Take `Clc1cccc(-c2ccccc2Cl)c1` [2,3'-dichlorobiphenyl]: the “Henry solubility constant Hcp at 293 K” value was found to be 0.032.

For the compound `Clc1ccc(-c2c(Cl)ccc(Cl)c2Cl)c(Cl)c1` [2,2',3,4',6-pentachlorobiphenyl], the “Henry solubility constant Hcp at 293 K” value turned out to be 0.036.

For the compound `Clc1ccc(-c2ccccc2Cl)cc1` [2,4'-dichlorobiphenyl], the “Henry solubility constant Hcp at 293 K” value was 0.035.

As to `Clc1ccc(Cl)c(-c2cccc(Cl)c2Cl)c1` [2,2',3,5'-tetrachlorobiphenyl], the “Henry solubility constant Hcp at 293 K” value worked out at 0.052.

For `Clc1cc(-c2c(Cl)ccc(Cl)c2Cl)c(Cl)c(Cl)c1Cl` [2,2',3,3',4,5,6'-heptachlorobiphenyl], the “Henry solubility constant Hcp at 293 K” value came to 0.2.

As for `Clc1ccccc1-c1cccc(Cl)c1Cl` [2,2',3-trichlorobiphenyl], the “Henry solubility constant Hcp at 293 K” value is 0.041.

As to `Clc1cc(Cl)c(-c2cccc(Cl)c2Cl)cc1Cl` [2,2',3,4',5'-pentachlorobiphenyl], the “Henry solubility constant Hcp at 293 K” value worked out at 0.066.

Turning to `Clc1cc(Cl)c(-c2cc(Cl)c(Cl)cc2Cl)cc1Cl` [2,2',4,4',5,5'-hexachlorobiphenyl], the “Henry solubility constant Hcp at 293 K” value stood at 0.1.

Take `Clc1cccc(-c2cccc(Cl)c2Cl)c1Cl` [2,2',3,3'-tetrachlorobiphenyl]: the “Henry solubility constant Hcp at 293 K” value amounted to 0.061.
